Measurements from US12258355B2, “Probes for imaging huntingtin protein” (CHDI Foundation, Inc., priority 2014, dated 2025).

How the values were obtained:
[1] = system: zQ175 knock-in mice (WT, heterozygous, homozygous); assay: In vivo PET imaging in zQ175 knock-in mouse model of Huntington's disease; settings: for Average % SUV: i.v., 63-minute PET scan, Mean ± SD
Experimental: In Vivo Imaging with [^11C]-Compound 3 of Method 14 (5-[(5-[^11C-]-Methoxypyridin-2-yl)methoxy]-2-(pyridin-3-yl)-1,3-benzoxazole)) in a Knock-In Model of Huntington's Disease
^11C-labeled Compound 3 of Method 14 was evaluated for its ability to penetrate the central nervous system of mice following systemic administration, and its binding to the cerebellum, striatum, hippocampus, and cortex was quantitated. Three groups of animals were compared: wild-type, and mice that were heterozygous or homozygous for the zQ175 knock-in allele. (Menalled L. B. et al. Comprehensive behavioral and molecular characterization of a new knock-in mouse model of Huntington's disease: zQ175. PLoS One 2012, 7, e49838).
Forty-eight nine months old animals (16 WT, 16 heterozygous and 16 homozygous zQ175) were obtained from The Jackson Laboratory, USA. The animals were housed at the animal department of Karolinska University Hospital in a temperature (±21° C.) and humidity (±40%) controlled environment on a 12 h light/dark cycle (lights on 7:00 AM) with access to food and water ad libitum. Animals were allowed at least one week to habituate to the animal department before the start of the imaging sessions. All experiments were conducted during the light phase of the cycle.
Animals were anesthetized with inhalation of isoflurane (4-5% isoflurane in 100% oxygen). After induction of anesthesia, the isoflurane concentration was lowered to 1.5-2% (50/50 air/oxygen) and the animals were positioned in the scanner in a designated mouse bed. A cannula was inserted in the tail vein through which the radioligand was administered. A 63-minute dynamic PET scan was initiated immediately upon intravenous injection of the radioligand. Upon completion of the imaging sessions, each animal was returned to its cage.
Image and Statistical Analysis
The acquired list mode data, was reconstructed into 25 timeframes (63 min scan=4×10 s, 4×20 s, 4×60 s, 7×180 s, 6×360 s). The image reconstruction was made with a fully 3-dimensional maximum-likelihood expectation maximization algorithm (MLEM) with 20 iterations, without scatter and attenuation correction. The reconstructed dynamic PET images were co-registered to an inbuilt mouse MRI template available in PMOD, which also incorporates volumes of interest (VOI's) sets (PMOD Technologies Ltd., Zurich, Switzerland). With the help of these VOI sets, decay corrected time activity curves (TAC) were generated. The regional brain uptake values were expressed as percent standard uptake value (% SUV), which normalizes for injected radioactivity and body weight. In addition, the area under the curve (AUC) was calculated. The selected regions of interest (ROI) were: cortex, hippocampus, striatum and cerebellum.

[2] = system: recombinant tau and amyloid β1-42 (Aβ1-42) aggregates; settings: affinity for tau aggregates versus Aβ1-42 aggregates; cited from earlier work

SMILES | binding of the radioligand relative to wild type ([1]; all four brain regions, mice homozygous for the zQ175 allele) | Average % SUV ([1]; cerebellum, WT mice (n = 7)) [% SUV] | Average % SUV ([1]; cerebellum, het zQ175 mice (n = 7)) [% SUV] | Average % SUV ([1]; cerebellum, hom zQ175 mice (n = 6)) [% SUV] | Average % SUV ([1]; cortex, WT mice (n = 7)) [% SUV] | Average % SUV ([1]; cortex, het zQ175 mice (n = 7)) [% SUV] | Average % SUV ([1]; cortex, hom zQ175 mice (n = 6)) [% SUV] | Average % SUV ([1]; hippocampus, WT mice (n = 7)) [% SUV] | Average % SUV ([1]; hippocampus, het zQ175 mice (n = 7)) [% SUV] | Average % SUV ([1]; hippocampus, hom zQ175 mice (n = 6)) [% SUV] | Average % SUV ([1]; striatum, WT mice (n = 7)) [% SUV] | Average % SUV ([1]; striatum, het zQ175 mice (n = 7)) [% SUV] | Average % SUV ([1]; striatum, hom zQ175 mice (n = 6)) [% SUV] | ratio of Kd values [2]
[11CH3]Oc1ccc(COc2ccc3oc(-c4cccnc4)nc3c2)nc1 [^11C-labeled Compound 3 of Method 14, 5-[(5-[^11C-]-Methoxypyridin-2-yl)methoxy]-2-(pyridin-3-yl)-1,3-benzoxazole] | Increased binding | 74.2 ± 3.0 | 78.4 ± 5.9 | 88.2 ± 5.0 | 69.1 ± 3.1 | 75.1 ± 4.3 | 93.9 ± 8.0 | 72.0 ± 3.6 | 80.3 ± 5.5 | 104.6 ± 7.9 | 68.8 ± 2.7 | 79.7 ± 5.8 | 104.4 ± 9.1 | –
CN(C)c1ccc(/C=C/c2nc3ccc(I)cc3[nH]2)cc1 [SBIM-3, 4-[(E)-2-(6-iodo-1H-benzimidazol-2-yl)ethenyl]-N,N-dimethylaniline] | – | – | – | – | – | – | – | – | – | – | – | – | – | 2.73
